Consider one compound from US8399515B2, “Five and fifteen carbon fatty acids for treating metabolic disorders and as nutritional supplements” (Baylor Research Institute, priority 2003, dated 2013).

What all share (assay type): cell-based, human
For assay [1], the system named is MCAD-deficient fibroblasts. The experiment in a line: Fate of odd-carbon fatty acids in MCAD-deficient fibroblasts. To be noted: for *C3 acylcarnitine / *C5 acylcarnitine / *C7 acylcarnitine / *C9 acylcarnitine: MCAD fibroblasts, N 4. Also noted: *C3 acylcarnitine / *C5 acylcarnitine / *C7 acylcarnitine / *C9 acylcarnitine / *C11 acylcarnitine / *C13 acylcarnitine / *C15 acylcarnitine: unit not given here. How it is done:
(§1) Fibroblasts obtained from patients with inherited defects of mitochondrial fat oxidation were cultured in the presence of omega deuterated odd-carbon numbered fatty acids, as described in Roe, C. R., Sweetman, L., Roe, D. S., David, F., Brunengraber, H., “Effective Dietary Treatment of Cardiomyopathy & Rhabdomyolysis in Long-Chain Fat Oxidation Disorders using an Anaplerotic Odd-Chain Triglyceride,” J. Clin. Invest. 110 (2): 259-269 (2002).
Fibroblasts from four patients with MCAD deficiency and one heterozygote (carrier) indicate that odd-carbon fatty acids containing more than seven carbons can not be effectively used in that disease. […]

In assay [2] the test system is fibroblasts from MCAD heterozygote (carrier). Kind of assay: Fate of odd-carbon fatty acids in MCAD carrier fibroblasts. Also noted: unit not given here. How it is done:
as §1
Fibroblasts from four patients with MCAD deficiency and one heterozygote (carrier) indicate that odd-carbon fatty acids containing more than seven carbons can not be effectively used in that disease. […] That any C3 was produced is presumably due to overlapping

Assay [3] concerns control / normal fibroblasts. Kind of assay: Fate of odd-carbon fatty acids in control (normal) fibroblasts. Also noted: *C3 acylcarnitine / *C5 acylcarnitine / *C7 acylcarnitine / *C9 acylcarnitine / *C11 acylcarnitine / *C13 acylcarnitine / *C15 acylcarnitine: unit not given here. The procedure:
Fibroblasts obtained from patients with inherited defects of mitochondrial fat oxidation were cultured in the presence of omega deuterated odd-carbon numbered fatty acids, as described in Roe, C. R., Sweetman, L., Roe, D. S., David, F., Brunengraber, H., “Effective Dietary Treatment of Cardiomyopathy & Rhabdomyolysis in Long-Chain Fat Oxidation Disorders using an Anaplerotic Odd-Chain Triglyceride,” J. Clin. Invest. 110 (2): 259-269 (2002). […]

On to `CCCCCCCCC(=O)O` [C9, nonanoate, reference compound], for which the “*C3 acylcarnitine” value is 5.5 in assay [1] (Maximum); 3.0 in assay [1] (Mean); 1.6 in assay [1] (Minimum); 6.0 in assay [2]; 3.9 in assay [3] (CONTROL MEAN, N = 4). Also, the “*C5 acylcarnitine” value in assay [1] (Maximum) turned out to be 0.7; in assay [1] (Mean) it was 0.5; in assay [1] (Minimum), 0.3; in assay [2], 0.4; in assay [3] (CONTROL MEAN, N = 4), 0.4. Besides, the “*C7 acylcarnitine” value in assay [1] (Maximum) was 4.2; in assay [1] (Mean) it was 2.8; in assay [1] (Minimum), 1.6; in assay [2] it was 0.4; in assay [3] (CONTROL MEAN, N = 4) it was 0.3. The “*C9 acylcarnitine” value in assay [1] (Maximum) is 10.3; in assay [1] (Mean) it was 7.3; in assay [1] (Minimum), 4.0; in assay [2], 3.2; in assay [3] (CONTROL MEAN, N = 4) it was 2.0. Besides, the figures for the “Propionylcarnitine from odd carbon precursor” value in assay [1] (MCAD-1 fibroblast cell line), in assay [1] (MCAD-2 fibroblast cell line) and in assay [3] (NORMAL fibroblasts) were 1.8 nmol/mg Protein/72 hours, 2.9 nmol/mg Protein/72 hours and 3.9 nmol/mg Protein/72 hours, respectively.
